Results: patent US9409884B2 (Rigel Pharmaceuticals, Inc., priority 2012, dated 2016)
pEC50: −log10 of the molar value.

Target: AMPK
Experiment: AMPK activation, enzyme-linked immunosorbent assay
Assay type: biochemical
Settings: Table 12, compounds of Table 5
Outline: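 AMPK activation by test compounds was measured by enzyme-linked immunosorbent assay.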

For N#Cc1ccc(CN2CCC(Oc3ccc(C(=O)NC4CCN(Cc5ccncc5)CC4)cc3)CC2)cc1 [Compound 5-83, 4-(1-(4-cyanobenzyl)piperidin-4-yloxy)-N-(1-(pyridin-4-ylmethyl)piperidin-4-yl)benzamide], the pEC50 was over 6.00.

O=C(NC1CCN(Cc2ccccc2)CC1)c1ccc(OC2CCN(Cc3ccc(Cl)c(Cl)c3)CC2)c(Cl)c1 [Compound 5-84, N-(1-benzylpiperidin-4-yl)-3-chloro-4-(1-(3,4-dichlorobenzyl)piperidin-4-yloxy)benzamide] was tested, and the pEC50 was over 6.00.

N#Cc1ccc(CN2CCC(Oc3ccc(C(=O)NC4CCN(Cc5ccccn5)CC4)cc3)CC2)cc1 [Compound 5-85, 4-(1-(4-cyanobenzyl)piperidin-4-yloxy)-N-(1-(pyridin-2-ylmethyl)piperidin-4-yl)benzamide] was tested, and the pEC50 was over 6.00.

O=C(NC1CCN(Cc2ccccc2)CC1)c1cccc(OC2CCN(c3ccccn3)CC2)c1 [Compound 5-86, N-(1-benzylpiperidin-4-yl)-3-(1-(pyridin-2-yl)piperidin-4-yloxy)benzamide] showed a pEC50 of over 6.00.

Work on O=C(NC1CCN(Cc2ccncc2)CC1)c1cccc(OC2CCN(c3ccc(C(F)(F)F)cc3)CC2)c1 [Compound 5-87, N-(1-(pyridin-4-ylmethyl)piperidin-4-yl)-3-(1-(4-(trifluoromethyl)phenyl)piperidin-4-yloxy)benzamide] yielded a pEC50 of over 6.00.

For N#Cc1ccc(N2CCC(Oc3cccc(C(=O)NC4CCN(Cc5ccncc5)CC4)c3)CC2)cc1 [Compound 5-88, N-(1-(pyridin-4-ylmethyl)piperidin-4-yl)-3-(1-(4-cyanophenyl)piperidin-4-yloxy)benzamide], the pEC50 was 5.00 to 6.00.

With N#Cc1cccc(CN2CCC(Oc3cccc(C(=O)NC4CCN(Cc5ccccc5)CC4)c3)CC2)c1 [Compound 5-89, N-(1-benzylpiperidin-4-yl)-3-(1-(3-cyanobenzyl)piperidin-4-yloxy)benzamide] the pEC50 was 5.00 to 6.00.

Work on CC(C)(C)OC(=O)N1CCC(Oc2ccc(C(=O)NC3CCN(Cc4ccccc4)CC3)cc2Cl)CC1 [Compound 5-90, tert-butyl 4-(4-(1-benzylpiperidin-4-ylcarbamoyl)-2-chlorophenoxy) piperidine-1-carboxylate] yielded a pEC50 of 5.00 to 6.00.

With CC(C)(C)C(=O)N1CCC(Oc2ccc(C(=O)NC3CCN(Cc4ccccc4)CC3)cc2Cl)CC1 [Compound 5-91, N-(1-benzylpiperidin-4-yl)-3-chloro-4-(1-pivaloylpiperidin-4-yloxy)benzamide] the pEC50 was over 6.00.

For CC(C)(C)OC(=O)N1CCC(Oc2ccc(C(=O)NC3CCN(Cc4ccccc4)CC3)cc2F)CC1 [Compound 5-92, tert-butyl 4-(4-(1-benzylpiperidin-4-ylcarbamoyl)-2-fluorophenoxy) piperidine-1-carboxylate], the pEC50 was 5.00 to 6.00.

O=C(NC1CCN(Cc2ccccc2)CC1)c1ccc(OC2CCNCC2)c(Cl)c1 [Compound 5-93, N-(1-benzylpiperidin-4-yl)-3-chloro-4-(piperidin-4-yloxy)benzamide] showed a pEC50 of under 4.00.

COc1cc(C(=O)NCCCNC(=O)OC(C)(C)C)ccc1OC1CCN(Cc2ccc(C(F)(F)F)cc2)CC1 [Compound 5-94, tert-butyl 3-(3-methoxy-4-(1-(4-(trifluoromethyl)benzyl)piperidin-4-yloxy)benzamido) propylcarbamate] gave a pEC50 of over 6.00.

For CC(C)(C)OC(=O)NCCCNC(=O)c1ccc(OC2CCN(Cc3ccc(C(F)(F)F)cc3)CC2)cc1 [Compound 5-95, tert-butyl 3-(4-(1-(4-(trifluoromethyl)benzyl)piperidin-4-yloxy)benzamido) propylcarbamate], the pEC50 was over 6.00.

Compound COc1ccc(CN2CCC(Oc3ccc(C(=O)N4CCN(C(=O)OC(C)(C)C)CC4)cc3)CC2)cc1 [Compound 5-96, tert-butyl 4-(4-(1-(4-methoxybenzyl)piperidin-4-yloxy)benzoyl)piperazine-1-carboxylate] has a pEC50 of 5.00 to 6.00.

In the case of COc1ccc(CN2CCC(Oc3ccc(C(=O)NCCCNC(=O)OC(C)(C)C)cc3Cl)CC2)cc1 [Compound 5-97, tert-butyl 3-(3-chloro-4-(1-(4-methoxybenzyl)piperidin-4-yloxy)benzamido) propylcarbamate], the pEC50 was 5.00 to 6.00.

With COc1cc(C(=O)NCCCN2CCOCC2)ccc1OC1CCN(Cc2ccc(Cl)cc2)CC1 [Compound 5-98, 4-(1-(4-chlorobenzyl)piperidin-4-yloxy)-4-methoxy-N-(3-morpholinopropyl)benzamide] the pEC50 was 5.00 to 6.00.

Work on CC(C)(C)OC(=O)N1CCN(C(=O)c2ccc(OC3CCN(Cc4ccccc4)CC3)cc2)CC1 [Compound 5-99, tert-butyl 4-(4-(1-benzylpiperidin-4-yloxy)benzoyl)piperazine-1-carboxylate] yielded a pEC50 of 5.00 to 6.00.

With O=C(NCCCN1CCOCC1)c1ccc(OC2CCN(Cc3ccc(Cl)cc3)CC2)cc1 [Compound 5-100, 4-(1-(4-chlorobenzyl)piperidin-4-yloxy)-N-(3-morpholinopropyl)benzamide] the pEC50 was 5.00 to 6.00.

COc1ccc(CN2CCC(Oc3ccc(C(=O)NCCCN4CCOCC4)cc3Cl)CC2)cc1 [Compound 5-101, 3-chloro-4-(1-(4-methoxybenzyl)piperidin-4-yloxy)-N-(3-morpholinopropyl)benzamide] showed a pEC50 of 4.70 to 5.00.

CC(C)(C)OC(=O)NCCCNC(=O)c1ccc(OC2CCN(Cc3ccccc3)CC2)c(Cl)c1 [Compound 5-102, tert-butyl 3-(4-(1-benzylpiperidin-4-yloxy)-3-chlorobenzamido) propylcarbamate] was tested, and the pEC50 was 4.70 to 5.00.

O=C(c1ccc(OC2CCN(Cc3ccccc3)CC2)cc1)N1CCN(c2ccccc2)CC1 [Compound 5-103, (4-(1-benzylpiperidin-4-yloxy)phenyl)(4-phenylpiperazin-l-yl)methanone] showed a pEC50 of 4.30 to 4.70.

Compound Cc1ccc(CN2CCC(Oc3ccc(C(=O)NCCCN4CCOCC4)cc3)CC2)cc1 [Compound 5-104, 4-(1-(4-methylbenzyl)piperidin-4-yloxy)-N-(3-morpholinopropyl)benzamide] has a pEC50 of 4.70 to 5.00.

With O=C(c1ccc(OC2CCN(Cc3ccccc3)CC2)cc1)N1CCN(Cc2ccccn2)CC1 [Compound 5-105, (4-(1-benzylpiperidin-4-yloxy)phenyl)(4-(pyridin-2-ylmethyl)piperazin-1-yl)methanone] the pEC50 was 4.70 to 5.00.

Work on COc1ccc(CN2CCC(NC(=O)c3cccc(OC4CCN(Cc5ccc(-c6ccccn6)cc5)CC4)c3)CC2)cc1 [Compound 5-106, N-(1-(4-methoxybenzyl)piperidin-4-yl)-3-(1-(4-(pyridin-2-yl)benzyl)piperidin-4-yloxy)benzamide] yielded a pEC50 of over 6.00.

Compound COc1ccc(CN2CCC(NC(=O)c3cccc(OC4CCN(Cc5ccc(OC)cc5)CC4)c3)CC2)cc1 [Compound 5-107, N-(1-(4-methoxybenzyl)piperidin-4-yl)-3-(1-(4-methoxybenzyl)piperidin-4-yloxy)benzamide] has a pEC50 of over 6.00.

For COc1ccc(CN2CCC(NC(=O)c3cccc(OC4CCN(Cc5ccc(C(F)(F)F)cc5)CC4)c3)CC2)cc1 [Compound 5-108, N-(1-(4-methoxybenzyl)piperidin-4-yl)-3-(1-(4-(trifluoromethyl)benzyl)piperidin-4-yloxy)benzamide], the pEC50 was over 6.00.

For COc1ccc(CN2CCC(NC(=O)c3cccc(OC4CCN(Cc5ccc(N6CCOCC6)cc5)CC4)c3)CC2)cc1 [Compound 5-109, N-(1-(4-methoxybenzyl)piperidin-4-yl)-3-(1-(4-morpholinobenzyl)piperidin-4-yloxy)benzamide], the pEC50 was over 6.00.

COc1ccc(CN2CCC(NC(=O)c3cccc(OC4CCN(CC5CCN(c6ccccc6)CC5)CC4)c3)CC2)cc1 [Compound 5-110, N-(1-(4-methoxybenzyl)piperidin-4-yl)-3-(1-((1-phenylpiperidin-4-yl)methyl)piperidin-4-yloxy)benzamide] gave a pEC50 of over 6.00.

With COc1ccc(CN2CCC(NC(=O)c3cccc(OC4CCN(Cc5cnn(-c6ccc(F)cc6)c5)CC4)c3)CC2)cc1 [Compound 5-111, 3-(1-((1-(4-fluorophenyl)-1H-pyrazol-4-yl)methyl)piperidin-4-yloxy)-N-(1-(4-methoxybenzyl)piperidin-4-yl)benzamide] the pEC50 was over 6.00.

Work on COC(=O)c1ccc(CN2CCC(Oc3cccc(C(=O)NC4CCN(Cc5ccc(OC)cc5)CC4)c3)CC2)cc1 [Compound 5-112, methyl 4-((4-(3-(l-(4-methoxybenzyl)piperidin-4-ylcarbamoyl)phenoxy)piperidin-1-yl)methyl)benzoate] yielded a pEC50 of 5.00 to 6.00.

Work on COc1ccc(CN2CCC(NC(=O)c3cccc(OC4CCN(Cc5ccc(Oc6ccc(C#N)cc6)cc5)CC4)c3)CC2)cc1 [Compound 5-113, 3-(1-(4-(4-cyanophenoxy)benzyl)piperidin-4-yloxy)-N-(1-(4-methoxybenzyl)piperidin-4-yl)benzamide] yielded a pEC50 of over 6.00.

Work on COc1ccc(CN2CCC(NC(=O)c3cccc(OC4CCN(Cc5cnn(-c6ccccn6)c5)CC4)c3)CC2)cc1 [Compound 5-114, N-(1-(4-methoxybenzyl)piperidin-4-yl)-3-(1-((1-(pyridin-2-yl)-1H-pyrazol-4-yl)methyl)piperidin-4-yloxy)benzamide] yielded a pEC50 of 5.00 to 6.00.

Compound N#Cc1ccc(CN2CCC(NC(=O)c3cccc(OC4CCN(c5ccc(C#N)cc5)CC4)c3)CC2)cc1 [Compound 5-115, N-(1-(4-cyanobenzyl)piperidin-4-yl)-3-(1-(4-cyanophenyl)piperidin-4-yloxy)benzamide] has a pEC50 of over 6.00.

N#Cc1ccc(CN2CCC(NC(=O)c3cccc(OC4CCN(Cc5ccc(N6CCCC6)cc5)CC4)c3)CC2)cc1 [Compound 5-116, N-(1-(4-cyanobenzyl)piperidin-4-yl)-3-(1-(4-(pyrrolidin-1-yl)benzyl)piperidin-4-yloxy)benzamide] was tested, and the pEC50 was over 6.00.

In the case of N#Cc1ccc(CN2CCC(NC(=O)c3cccc(OC4CCN(Cc5ccc(Oc6ccccc6)cc5)CC4)c3)CC2)cc1 [Compound 5-117, N-(1-(4-cyanobenzyl)piperidin-4-yl)-3-(1-(4-phenoxybenzyl)piperidin-4-yloxy)benzamide], the pEC50 was over 6.00.

In the case of N#Cc1ccc(CN2CCC(NC(=O)c3cccc(OC4CCN(Cc5ccc(-c6ccccn6)cc5)CC4)c3)CC2)cc1 [Compound 5-118, N-(1-(4-cyanobenzyl)piperidin-4-yl)-3-(1-(4-(pyridin-2-yl)benzyl)piperidin-4-yloxy)benzamide], the pEC50 was over 6.00.

With N#Cc1ccc(CN2CCC(NC(=O)c3cccc(OC4CCN(Cc5ccc(-n6cccn6)cc5)CC4)c3)CC2)cc1 [Compound 5-119, 3-(l-(4-(lH-pyrazol-1-yl)benzyl)piperidin-4-yloxy)-N-(1-(4-cyanobenzyl)piperidin-4-yl)benzamide] the pEC50 was over 6.00.
